For data set [1], the system named is E. coli. On the procedure: (§1) A1163 was grown on potato dextrose agar (PDA) medium at 37 °C for 5 days, and then the conidia were scraped and suspended in PBS with 0.025% (v/v) Tween 20, counted using a hemocytometer, and kept at 4 °C. isolated from peanuts and Pe21 (both kindly provided by Dr. Edward Sionov, ARO, Israel) were grown on PDA medium at 25 °C for 5 days, and then the conidia were scraped and suspended in PBS with 0.025% Tween 20 and kept at 4 °C. RP and methicillin-resistant (MRSA) were grown on LB agar plates, and individual colonies were picked and grown in Mueller–Hinton (MH) broth overnight at 37 °C. was grown on PDA medium at 30 °C, and individual colonies were picked and grown in yeast extract peptone dextrose (YPD) media overnight at 30 °C. All fungal and bacteria strains were maintained at −80 °C in 50% (v/v) glycerol stock.
(§2) For filamentous fungi strains, serial dilutions of 100 μL ranged from 100 to 0.78 μM for each peptide in a 96 well plate using RPMI1640 with 165 μM MOPS. A total of 80 μL of inoculum was suspended with a conidia load of 5 × 10^3 CFU/mL (final density of 2 × 10^3 CFU/mL), and 20 μL of resazurin was diluted in RPMI1640 solution of 0.02% [final concentration of 0.0002% (w/v)]. In the control, 100 μL of treatment was replaced by the same volume with medium, while the negative control was 180 μL of the medium and 20 μL of resazurin solution. Plates were incubated at 37 °C for and 25 °C for and for 24 h. The results were quantified by measuring absorbance at 570 nm with a microplate reader (Tecan). The mean absorbance values were used in subsequent calculations. The growth of resazurin reduction and growth inhibition was calculated using the following normalization: % growth=100−% reduction=abs of test agent−abs of untreated control/abs of reduced resazurin−abs of untreated control The MIC was defined as the lowest concentration of the peptide that inhibited fungal growth by 90%, allowing for only 10% of the normal growth. For bacterial and yeast strains studies, serial dilutions of 100 μL ranged from 100 to 0.78 μM for each peptide in a 96 well plate using MH media for bacteria and YPD for yeast. A total of 100 μL of the microbe in suitable media (5 × 10^5 CFU/mL) was inoculated in each well. In the untreated well (e.g., control), 100 μL of treatment was replaced by the same volume with medium, while in the negative control, media were only without microbes and peptides. After 24 h of incubation at 37 °C for bacteria and 30 °C for yeast, plates were read at 595 nm and MIC was defined as the lowest concentration of peptide that reduced the growth of the microbe to 10% growth.

The test system of data set [2] is A. Niger. Conditions: 24 h. On the procedure:
as §1, §2

The subject of data set [3] is A. fumigatus. As to conditions: 24 h. The protocol:
as §1, §2

Data set [4] relates to MRSA. The protocol: as §1, §2
Data set [5] has as its system P. expansum. As to conditions: 24 h. The protocol: as §1, §2
The target of data set [6] is chymotrypsin (Bos taurus, UniProt P00766). Kind of data set: Digestion examination of the peptides by chymotrypsin. The protocol:
Peptides were dissolved in 1 mL of 100 μM NH4HCO3 to a final concentration of 4 mM, followed by the addition of 1 μL chymotrypsin (1 mg/mL), and were incubated at 37 °C and 150 rpm. At each time point, 75 μL of the solution was transferred to 90 °C for inactivation of the enzyme. After the peptides were frozen in liquid nitrogen and lyophilized, they were dissolved in DMSO and were analyzed in HPLC using Analytic Phenomenex Luna C18 (5 μm, 4.6 × 250 mm) with standard RP-HPLC conditions. The area under curve (AUC) was calculated at each time point and normalized to time = 0.
4 Peptide’s secondary structure and digestibility. (A) CD spectra of the peptides (50 μM) in DDW was measured using a J-1100 spectropolarimeter (Jasco), with the following parameters: wavelength range of 190–260 nm, bandwidth of 1 nm, data pitch of 0.1 nm, and three accumulations. A baseline spectrum was recorded using a 0.1 cm quartz cuvette filled with DDW and subtracted from the peptide spectrum to obtain the corrected CD spectrum. […] The area under the curve (AUC) was calculated at each time point and normalized to t = 0. The y axis ranges from 100%, meaning not digested at all, to 0%, meaning fully digested.

[7] abbreviates: MH media, 5 × 10^5 CFU/mL, 24 h at 37 °C, read at 595 nm, MIC = growth reduced to 10%, average ± SE, 3 biological repeats in triplicates.
The mark [8] stands for this setting: RPMI1640 with MOPS, resazurin, absorbance 570 nm, MIC = lowest concentration inhibiting growth by 90%, average ± SE, 3 biological repeats in triplicates.

≈ marks a conversion by molar mass, not a printed value. Entries after “also recorded” stand apart in the source; their conditions may differ. Where two headings read alike, the source gives them in different places. Residues, ends and D or L forms follow the SMILES beside them.

From PMC12291464, “Modifying Antifungal Peptides as Safe Food Preservatives” (Journal of Agricultural and Food Chemistry, 2025) come the findings set out here.

For `CC[C@H](C)[C@H](NC(=O)[C@H](CCCCN)NC(=O)[C@H](CCCCN)NC(=O)[C@H](Cc1ccccc1)NC(=O)[C@H](CC(C)C)NC(=O)[C@H](CCCCN)NC(=O)[C@H](CCCCN)NC(=O)[C@H](CC(C)C)NC(=O)[C@H](Cc1ccc(O)cc1)NC(=O)[C@H](CCCCN)NC(=O)[C@H](CC(C)C)NC(=O)[C@@H](NC(=O)[C@H](CCCCN)NC(=O)[C@H](CCCCN)NC(=O)[C@H](Cc1ccccc1)NC(=O)[C@H](CC(C)C)NC(=O)[C@H](CCCCN)NC(=O)[C@H](CCCCN)NC(=O)[C@H](CC(C)C)NC(=O)[C@H](Cc1ccc(O)cc1)NC(=O)[C@H](CCCCN)NC(=O)[C@H](CC(C)C)NC(=O)[C@@H](NC(=O)[C@H](CCCCN)NC(=O)[C@H](CCCCN)NC(=O)[C@H](Cc1ccccc1)NC(=O)[C@H](CC(C)C)NC(=O)[C@H](CCCCN)NC(=O)[C@@H](N)CCCCN)[C@@H](C)CC)[C@@H](C)CC)C(=O)N[C@@H](CC(C)C)C(=O)N[C@@H](CCCCN)C(=O)N[C@@H](Cc1ccc(O)cc1)C(=O)N[C@@H](CC(C)C)C(N)=O` [BP100 Triple] (H-KKLFKKILKYLKKLFKKILKYLKKLFKKILKYL-NH2), the “MIC Values, E. coli” value in data set [1] (setting [7]) is over 200 µM. Further, the “MIC Values, A. Niger” value in data set [2] (setting [8]) is over 200 µM. Further, the “MIC Values, A. fumigatus” value in data set [3] (setting [8]) was 42 ± 8.3 µM (≈ 178 µg/mL). In data set [4] (setting [7]), the “MIC Values, MRSA” value was over 200 µM. The “MIC Values, P. expansum” value in data set [5] (setting [8]) came to 83 ± 17 µM (≈ 351 µg/mL). In addition, in data set [6], the digestion by chymotrypsin entry was “less prone for digestions; also recorded: not digested”.

Turning to `CC[C@H](C)[C@H](NC(=O)[C@H](CCCCN)NC(=O)[C@H](CCCCN)NC(=O)[C@H](Cc1ccccc1)NC(=O)[C@H](CC(C)C)NC(=O)[C@H](CCCCN)NC(=O)[C@H](CCCCN)NC(=O)[C@H](CC(C)C)NC(=O)[C@H](Cc1ccc(O)cc1)NC(=O)[C@H](CCCCN)NC(=O)[C@H](CC(C)C)NC(=O)[C@@H](NC(=O)[C@H](CCCCN)NC(=O)[C@H](CCCCN)NC(=O)[C@H](Cc1ccccc1)NC(=O)[C@H](CC(C)C)NC(=O)[C@H](CCCCN)NC(=O)[C@@H](N)CCCCN)[C@@H](C)CC)C(=O)N[C@@H](CC(C)C)C(=O)N[C@@H](CCCCN)C(=O)N[C@@H](Cc1ccc(O)cc1)C(=O)N[C@@H](CC(C)C)C(N)=O` [BP100 Double] (H-KKLFKKILKYLKKLFKKILKYL-NH2), in data set [1] (setting [7]), the “MIC Values, E. coli” value is over 200 µM. Also, the “MIC Values, A. Niger” value in data set [2] (setting [8]) was 5 ± 1 µM (≈ 14.1 µg/mL). For the same compound, in data set [3] (setting [8]), the “MIC Values, A. fumigatus” value came to 3 ± 0.5 µM (≈ 8.47 µg/mL). Moreover, the “MIC Values, MRSA” value in data set [4] (setting [7]) was over 200 µM. In addition, in data set [5] (setting [8]), the “MIC Values, P. expansum” value was determined as 2 ± 0 µM (≈ 5.65 µg/mL). In addition, the digestion by chymotrypsin result in data set [6] is reported as “less prone for digestions; also recorded: not digested”.

As to `C[C@H](N)C(=O)N[C@@H](CCCCN)C(=O)N[C@@H](CCCNC(=N)N)C(=O)N[C@@H](Cc1c[nH]cn1)C(=O)N[C@@H](Cc1c[nH]cn1)C(=O)NCC(=O)N[C@@H](Cc1ccc(O)cc1)C(=O)N[C@@H](CCCCN)C(=O)N[C@@H](CCCNC(=N)N)C(=O)N[C@@H](CCCCN)C(=O)N[C@@H](Cc1ccccc1)C(=O)N[C@@H](Cc1c[nH]cn1)C(N)=O` [P-113, reference compound] (H-AKRHHGYKRKFH-NH2), in data set [1] (24 h), the “MIC Values, E. coli” value is over 200 µM. Moreover, the “MIC Values, A. Niger” value in data set [2] was found to be 14 ± 2 µM (≈ 21.9 µg/mL). The “MIC Values, A. fumigatus” value in data set [3] is 21 ± 4 µM (≈ 32.8 µg/mL). Also, in data set [4] (24 h), the “MIC Values, MRSA” value was over 200 µM. Besides, the “MIC Values, P. expansum” value in data set [5] was over 200 µM.

As for `C[C@H](N)C(=O)N[C@@H](CCCCN)C(=O)N[C@@H](CCCNC(=N)N)C(=O)N[C@@H](Cc1c[nH]cn1)C(=O)N[C@@H](Cc1c[nH]cn1)C(=O)NCC(=O)N[C@@H](Cc1ccc(O)cc1)C(=O)N[C@@H](CCCCN)C(=O)N[C@@H](CCCNC(=N)N)C(=O)N[C@@H](CCCCN)C(=O)N[C@@H](Cc1ccccc1)C(=O)N[C@@H](Cc1c[nH]cn1)C(=O)N[C@@H](C)C(=O)N[C@@H](CCCCN)C(=O)N[C@@H](CCCNC(=N)N)C(=O)N[C@@H](Cc1c[nH]cn1)C(=O)N[C@@H](Cc1c[nH]cn1)C(=O)NCC(=O)N[C@@H](Cc1ccc(O)cc1)C(=O)N[C@@H](CCCCN)C(=O)N[C@@H](CCCNC(=N)N)C(=O)N[C@@H](CCCCN)C(=O)N[C@@H](Cc1ccccc1)C(=O)N[C@@H](Cc1c[nH]cn1)C(N)=O` [P-113 Double] (H-AKRHHGYKRKFHAKRHHGYKRKFH-NH2), the “MIC Values, E. coli” value in data set [1] (setting [7]) is over 200 µM. Besides, in data set [2] (setting [8]), the “MIC Values, A. Niger” value worked out at 5 ± 1 µM (≈ 15.6 µg/mL). In data set [3] (setting [8]), the “MIC Values, A. fumigatus” value worked out at 15 ± 5 µM (≈ 46.7 µg/mL). For the same compound, the “MIC Values, MRSA” value in data set [4] (setting [7]) is over 200 µM. For the same compound, the “MIC Values, P. expansum” value in data set [5] (setting [8]) was determined as 9 ± 3 µM (≈ 28 µg/mL).

Take `CC[C@H](C)[C@H](NC(=O)[C@H](CCCCN)NC(=O)[C@H](CCCCN)NC(=O)[C@H](Cc1ccccc1)NC(=O)[C@H](CC(C)C)NC(=O)[C@H](CCCCN)NC(=O)[C@@H](N)CC(C)C)C(=O)N[C@@H](CC(C)C)C(=O)N[C@@H](CCCCN)C(=O)N[C@@H](Cc1ccc(O)cc1)C(=O)N[C@@H](CC(C)C)C(N)=O` [BP100 L1K]: the “MIC Values, E. coli” value in data set [1] (setting [7]) is 3 ± 1 µM (≈ 4.22 µg/mL). The “MIC Values, A. Niger” value in data set [2] (setting [8]) was determined as 33 ± 8 µM (≈ 46.4 µg/mL). In data set [3] (setting [8]), the “MIC Values, A. fumigatus” value was found to be 13 ± 0 µM (≈ 18.3 µg/mL). Further, in data set [4] (setting [7]), the “MIC Values, MRSA” value worked out at 3 ± 0 µM (≈ 4.22 µg/mL). Besides, the “MIC Values, P. expansum” value in data set [5] (setting [8]) was determined as 8 ± 2 µM (≈ 11.2 µg/mL).
